According to patent US20160008298A1, “XANTHOHUMOL-BASED COMPOUNDS AND COMPOSITIONS THEREOF, AND METHODS OF MAKING AND USING THE SAME” (Oregon State University, priority 2014, published 2016):

Experiments:
[1] = Low and high XN diet feeding for 12 weeks, body weight and food intake; assay type: in vivo, mouse; details: high-fat fed C57BL/6J mice; for body weight gain compared to vehicle: oral, 12 weeks
Description: FIG. 27 is a graph showing weekly body weights of C57BL/6J mice fed control, low XN (30 mgkg body weight/day) and high XN (60 mg/kg body weight/day) diets for 12 weeks.
FIG. 28 is a graph showing no difference in food intake between treated and untreated mice for the studies from FIG. 27.

[2] = system: mice; experiment: Mouse LD50; assay type: in vivo
[3] = system: mice; details: mouse; cited from earlier work
[4] = system: rats; experiment: XN administered to rats at human equivalent doses; assay type: in vivo, rat
Description: In particular disclosed embodiments, the human equivalent dose of 180 mg XN/day reduced body weight gain by 14% and reduced fasting plasma glucose by 25% when administered to rats. In some embodiments, the human equivalent dose of 60 or 180 mg XN/day reduced the formation of products of dysfunctional fatty acid oxidation by up to 55% when administered to rats. Solely by way of example, the range 0.1-500 mg described above in Table 2 for XN covers the effective human equivalent doses of 60 mg/day to 180 mg/day of XN.

[5] = Dissolution in Seahorse running medium; assay type: physicochemical; details: 0.1% of FBS, 37° C.
[6] = human equivalent dose of 180 mg XN/day

COc1cc(O)c(CC=C(C)C)c(O)c1C(=O)/C=C/c1ccc(O)cc1 [XN, xanthohumol]
food intake ([1]; 30 and 60 mg/kg): not altered | body weight gain compared to vehicle ([1]; 30 mg/kg (low dose)): gain less weight | body weight gain compared to vehicle ([1]; 60 mg/kg (high dose)): gain less weight | LD50 dose relative to the effective dose level [2]: more than 50 times | LD50 [3]: > 2000 mg/kg | reduction of body weight gain [4, 6]: 14% | reduction of fasting plasma glucose [4, 6]: 25% | reduction of the formation of products of dysfunctional fatty acid oxidation ([4]; human equivalent dose of 60 or 180 mg XN/day): up to 55%

COc1cc(O)c(CC=C(C)C)c(O)c1C(=O)CCc1ccc(O)cc1 [DXN, α,β-dihydroxanthohumol]
concentration dissolved in running medium [5]: up to 25 μM
